Data on 12 molecules can be found in patent publication US20110217300A1, “Quinazolinone Compounds and Methods of Use Thereof” (priority 2007, published 2011).

In one assay the target is T1, HsEg5 (Homo sapiens, UniProt P52732).
T1 sequence (P52732 18-359 limits assumed): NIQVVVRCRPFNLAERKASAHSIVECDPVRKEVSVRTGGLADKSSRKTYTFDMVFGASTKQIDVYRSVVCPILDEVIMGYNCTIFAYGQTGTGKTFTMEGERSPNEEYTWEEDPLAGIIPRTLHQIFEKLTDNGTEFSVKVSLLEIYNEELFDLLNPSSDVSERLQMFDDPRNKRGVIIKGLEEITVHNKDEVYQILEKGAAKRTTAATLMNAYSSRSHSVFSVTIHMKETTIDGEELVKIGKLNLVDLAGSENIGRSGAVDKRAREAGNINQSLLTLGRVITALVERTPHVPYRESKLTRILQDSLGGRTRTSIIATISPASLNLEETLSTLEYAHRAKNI
Nature of the assay: Fluorescence detection of HsEg5 ATPase activity (ADP Quest, automated). The class given is biochemical. Here is the method: Purified HsEg5 motor fragment was activated by mixture with preformed MT polymer (Cytoskeleton, Denver, Colo.) at room temperature for 20 minutes. MT activated ATPase activity was measured using ADP Quest (DiscoverX, Fremont, Calif.) in which a coupled-enzyme assay can translate accumulation of ADP into detectable resorufin signal (FIG. 1A). Fluorescence was measured at λEx=535 nm and λEm=590 nm on a Wallac Victor 2 plate reader (Perkin-Elmer Life Sciences, Boston, Mass.). Reagent A and B from ADP Quest kit were aliquoted and frozen in −20° C. before use. A standard curve was determined using the provided ADP reagent in the reaction buffer that consisted of 50 mM Pipes (pH7.0), 5.0 mM MgCl2, 20 μM paclitaxel and […]. The same buffer was used for Km determination with HsEg5 concentration of 10 nM.
For inhibitor screening, 4 μL of compounds were incubated with 10 μL of MT-activated HsEg5 such that the final concentrations for compound range from 100 μM to 5 nM (1 to 3 serial dilutions, final concentration) and final concentration for HsEg5 is 10 nM. The mixture was incubated at room temperature for 10 minutes with mild shaking. The screening assay contained 0.3% DMSO in all reaction wells. We used wells containing only DMSO as negative controls and wells without ATP as background. Addition of 6 μL ATP (final concentration of 20 μM) initiated the ATP hydrolysis reaction. The 20 μL-reaction was allowed to proceed at room temperature for 10 minutes before addition of 10 μL of reagent A and 20 μL of reagent B. After 20-minute development at room temperature, the fluorescence was measured and data analysis was performed using GraphPad Prism version 3.0 (GraphPad Software, San Diego, Calif.)
For the purpose of high-throughput screening, we automated the fluorescence assay using a Sciclone ALH3000 (Caliper Life Sciences, Hopkinton, Mass.) and Multidrop 384 (Thermo Electron Corp, Waltham, Mass.). First, compound dilution plates for screening (at 10 μM or 1 μM) and ICso determination (10 data points from 100 μM to 5 nM) were made in Corning polypropylene V-bottom 96-well plates. In both cases, the 1st and 7th column contained background (No ATP addition) and negative control (DMSO only). For screening compounds at 10 μM or 1 μM, […] of each compound at 50 μM or 5 μM were used in a 20 μL assay reaction. For IC50 determination, the mother compound plate contained 24 μL of tested compound at stock concentration of 30 mM. 6 μL of each test compound in 30 mM was added to each well in the column 2 and followed by 1:3 serial dilutions in DMSO with the Sciclone ALH3000. 234 μL of assay buffer was then added using a Multidrop 384. Then 4 μL of diluted compounds was used in 20 μL-reaction. The final concentration was a 1:300 dilution of the original stock. Second, a reagent source plate was prepared with three rows designated to MT-activated HsEg5, Reagent A and Reagent B respectively. MTs were diluted with assay buffer and polymerized at room temperature for 10 minutes. Just before use, HsEg5 protein was thawed on ice and activated by addition of MT polymers at room temperature for 20 minutes. HsEg5/MT was then added to Row A of the reagent source plate. The final assay concentration was 10 nM HsEg5 and 500 nM MTs. Reagent A and B were stored at −20° C. and thawed at room temperature followed by transferring to rows B & C of the reagent source plate. Third, ATP substrate plate was prepared by transferring 80 μM ATP solution to each well of a V-shape 96-well plate except the wells in the first row where assay buffer was added instead to have no-ATP blanks. The final concentration for ATP in the assay was 20 μM.
The assay was programmed on Sciclone ALH3000 with the following procedures: 1) Addition of 4 μL compounds to the assay plate, followed by addition of 10 μL of MT-activated HsEg5. […]

For a further assay, the system named is NCI-H460. Nature of the assay: MTS cell viability assay. Conditions: Homo sapiens, NCI-H460, 72 h. Type of assay: cell-based, human. Here is the method:
Cell viability was determined by measuring the activity of dehydrogenase enzymes in metabolically active cells using a tetrazolium compound, MTS. The assay was performed as described in Promega Technical Bulletin No. 169 (CellTiter 96 Aqueous Non-Radioactive Cell Proliferation Assay). Two human cancer cell lines were assayed (see, Table 1). Cells were maintained at 37° C. and 5% CO2 in DMEM media (4.5 g/L glucose) supplemented with 10% heat-inactivated FBS, 10 mM L-glutamine, and 10 mM Hepes pH 7.5. Briefly, cells were seeded in 96-well plates as set forth in Table 1 and incubated for 16-24 hours. Candidate compounds were serially diluted in DMSO, further diluted in cell culture media, and then added to cells (final DMSO concentration of 0.33%). Cells were incubated in the presence of candidate compound for 72 hours. MTS stock solution (MTS 2 gm/L, PMS […] in PBS) was added to the cells (final concentration MTS […] and PMS 7.67 mg/L) and incubated for 4 hours. SDS was added to a final concentration of 1.4% and absorbance at 490 nm was measured within two hours using a plate reader. […] GI50 values were given in Table 2 for the compounds listed. The Compound Numbers in Table 2 correspond to the numbers listed parenthetically in the Example titles. Where multiple measurements were made by different technicians, both values are given.
Cell viability was determined for N-(3-amino-propyl)-3-chloro-N—[(R)-1-(7-chloro-4-oxo-3-phenylamino-3,4-dihydro-quinazolin-2-yl)-but-3-ynyl]-2-fluoro-benzamide (compound I of Table 2). The cell viability assay of Example 105 was used. GI50 was determined using a variety of cell lines. Cells were plated at 100-5000 cells per well. At least 2 replicates were performed. Where multiple measurements were made by different technicians, both values are given.

For a further assay, the system named is A549. The assay can be described thus: MTS cell viability assay. Type of assay: cell-based. As to conditions: Homo sapiens, A549 non small cell lung, 72 hours, read-out: MTS NCI A549 GI50. Here is the method: Two human cancer cell lines were assayed (see, Table 1). Cells were maintained at 37° C. and 5% CO2 in DMEM media (4.5 g/L glucose) supplemented with 10% heat-inactivated FBS, 10 mM L-glutamine, and 10 mM Hepes pH 7.5. Briefly, cells were seeded in 96-well plates as set forth in Table 1 and incubated for 16-24 hours. Candidate compounds were serially diluted in DMSO, further diluted in cell culture media, and then added to cells (final DMSO concentration of 0.33%). Cells were incubated in the presence of candidate compound for 72 hours. […] The Compound Numbers in Table 2 correspond to the numbers listed parenthetically in the Example titles.

Setting [1] is: read-out: MTS NCI H460 GI50, NCI-H460 non small cell lung, 72 hours.

pIC50: −log10 of the molar value. Read-outs that look alike come from different tables or passages of the source.

The pIC50 is the negative decadic logarithm of the IC50, by convention in mol/L. As a reminder, the GI50 is the concentration at which growth is held to half of that of the control. In turn, `NCCCN(C(=O)c1ccc(F)cc1)C(Cc1cccs1)c1nc2cc(Cl)ccc2c(=O)n1Nc1ccccc1` (stereo not drawn) [Compound 51, N-(3-Aminopropyl)-N-[1-(3-anilino-7-chloro-4-oxo-3,4-dihydroquinazolin-2-yl)-2-(2-thienyl)ethyl]-4-fluorobenzamide] had a pIC50 against HsEg5 of 5.55. The GI50 in the assay on NCI-H460 (read-out: MTS NCI H460 GI50) is 5.38 µM; with A549 it was 4.45 µM.
Regarding `CCC(c1nc2cc(Cl)ccc2c(=O)n1Nc1ccccc1)N(CCCN)C(=O)c1ccc2ccccc2n1` (stereo not drawn) [Compound 22, N-(3-Aminopropyl)-N-[1-(3-anilino-7-chloro-4-oxo-3,4-dihydroquinazolin-2-yl)propyl]quinoline-2-carboxamide], at HsEg5, the negative logarithm of the IC50 (pIC50) was 5.79. Further, the GI50 in the assay with NCI-H460 (read-out: MTS NCI H460 GI50) was 1.17 µM; in the assay on A549, 2.08 µM.
On the same counts, the results for `CCC(c1nc2cc(Cl)ccc2c(=O)n1Nc1ccccc1)N(CCCN)C(=O)c1cccc(F)c1F` (stereo not drawn) [Compound 7, N-(3-Aminopropyl)-N-[1-(3-anilino-7-chloro-4-oxo-3,4-dihydroquinazolin-2-yl)propyl]-2,3-difluorobenzamide] are 6.25, 1.77 µM and 2.57 µM.
For `CCC(c1nc2ccc(C)cc2c(=O)n1Nc1ccccc1)N(CCCN)C(=O)c1ccc(C)cc1` (stereo not drawn) [Compound 28, N-(3-Aminopropyl)-N-[1-(3-anilino-6-methyl-4-oxo-3,4-dihydroquinazolin-2-yl)propyl]-4-methylbenzamide], in that order: 5.80, 1.35 µM and 2.5 µM.
For `C#CCC(c1nc2cc(Cl)ccc2c(=O)n1Nc1ccccc1)N(CCCN)C(=O)c1cccc(Cl)c1F` (stereo not drawn) [Compound 57, N-(3-Aminopropyl)-N-[1-(3-anilino-7-chloro-4-oxo-3,4-dihydroquinazolin-2-yl)but-3-yn-1-yl]-3-chloro-2-fluorobenzamide], in that order: 7.30, 0.766 µM and 0.433 µM.
On to `NCCCN(C(=O)c1ccc(Br)cc1)C(Cc1cccs1)c1nc2cc(Cl)ccc2c(=O)n1Nc1ccccc1` (stereo not drawn) [Compound 48, N-(3-Aminopropyl)-N-[1-(3-anilino-7-chloro-4-oxo-3,4-dihydroquinazolin-2-yl)-2-(2-thienyl)ethyl]-4-bromobenzamide], for which the pIC50 at HsEg5 is 5.59. The concentration for 50% growth inhibition (GI50) in the assay with NCI-H460 (read-out: MTS NCI H460 GI50) was 4.36 µM; in the assay on A549 it was 4.93 µM.
At HsEg5, `CCC(c1nc2cc(Cl)ccc2c(=O)n1Nc1ccccc1)N(CCCN)C(=O)c1ccc(C)c(F)c1F` (stereo not drawn) [Compound 21, N-(3-Aminopropyl)-N-[1-(3-anilino-7-chloro-4-oxo-3,4-dihydroquinazolin-2-yl)propyl]-2,3-difluoro-4-methylbenzamide] showed a negative logarithm of the IC50 (pIC50) of 5.90. Besides, the GI50 in the assay on NCI-H460 (setting [1]) was found to be 1.08 µM; in the assay on A549 (A549, 72 h), 1.93 µM.
For the molecule `NCCCN(C(=O)c1ccc(Cl)c(Cl)c1)C(Cc1ccc(O)cc1)c1nc2cc(Cl)ccc2c(=O)n1Nc1ccccc1` (stereo not drawn) [Compound 54, N-(3-Aminopropyl)-N-[1-(3-anilino-7-chloro-4-oxo-3,4-dihydroquinazolin-2-yl)-2-(4-hydroxyphenyl)ethyl]-3,4-dichlorobenzamide], the pIC50 at HsEg5 was 5.62. In addition, the GI50 in the assay on NCI-H460 (setting [1]) turned out to be 11.9 µM; with A549 (A549, 72 h) it was 12.2 µM.
With `CCC(c1nc2cc(Cl)ccc2c(=O)n1Nc1ccccc1)N(CCN)C(=O)c1c(F)ccc(C)c1F` (stereo not drawn) [Compound 62, N-(2-Aminoethyl)-N-[1-(3-anilino-7-chloro-4-oxo-3,4-dihydroquinazolin-2-yl)propyl]-2,6-difluoro-3-methylbenzamide], at HsEg5, the pIC50 was 5.43. Further, the GI50 with NCI-H460 (read-out: MTS NCI H460 GI50) turned out to be 22.8 µM; in the assay on A549, 21.7 µM.
On to `Cc1ccc(C(=O)N(CCCN)C(Cc2cccs2)c2nc3cc(Cl)ccc3c(=O)n2Nc2ccccc2)cc1` (stereo not drawn) [Compound 49, N-(3-Aminopropyl)-N-[1-(3-anilino-7-chloro-4-oxo-3,4-dihydroquinazolin-2-yl)-2-(2-thienyl)ethyl]-4-methylbenzamide], for which the pIC50 on HsEg5 is 5.46. Moreover, the GI50 is 4.41 µM in the assay on NCI-H460 (setting [1]) and 4.69 µM in the assay on A549 (A549, 72 h).
Take `CCC(c1nc2ccc(Cl)cc2c(=O)n1Nc1ccccc1)N(CCCN)C(=O)c1ccc(C)cc1` (stereo not drawn) [Compound 27, N-(3-Aminopropyl)-N-[1-(3-anilino-6-chloro-4-oxo-3,4-dihydroquinazolin-2-yl)propyl]-4-methylbenzamide]: the pIC50 against HsEg5 was 5.89. Also, the values for the GI50 in the assay with NCI-H460 (read-out: MTS NCI H460 GI50) and in the assay on A549 were 1.08 µM and 2.22 µM, respectively.
As for `CCC(c1nc2cc(Cl)ccc2c(=O)n1Nc1ccccc1)N(CCCN)C(=O)c1c(F)ccc(C)c1F` (stereo not drawn) [Compound 17, N-(3-Aminopropyl)-N-[1-(3-anilino-7-chloro-4-oxo-3,4-dihydroquinazolin-2-yl)propyl]-2,6-difluoro-3-methylbenzamide], the pIC50 on HsEg5 was 5.80. The GI50 in the assay on NCI-H460 (setting [1]) was 1.59 µM; with A549 (A549, 72 h) it was 2.56 µM.
